Data reported in patent US20110003773A1, “USING FULLERENES TO ENHANCE AND STIMULATE HAIR GROWTH” (Luna Innovations Incorporated, priority 2008, published 2011).

Test system: shaved C57/B6 mice
Assay: Hair growth in shaved C57/B6 mice after injection at the shaved site
Assay type: in vivo
Conditions: 300 μl of 1 μg/ml in PBS injected at the shaved site every day for 12 days, vs PBS
Protocol: The backs of C57/B6 mice were shaved bald on the intracapsular part of the back. 300 μl of phosphate buffered saline (PBS) or 300 μl of 1 μg/ml of compound 5 (labelled LnW0033 in FIG. 2) in PBS was injected at the shaved site every day for 12 days.
The backs of C57/B6 mice were shaved bald on the intracapsular part of the back. 300 μl PBS or 300 μl of 1 μg/ml Polyhydroxy-C60 (C60(OH)˜18-24; BuckyUSA, Houston, Tex.; called “Poly C60” in FIG. 3) in PBS was injected at the shaved site every day for 12 days.

Polyhydroxy-C60
hair growth (photograph at day 12) compared to control: hair growth enhancement
